Like-named read-outs stand apart in the source and are kept apart here.
How the values were obtained:
[1] = tested on: amino acid racemase and PAM; test: Coupled enzyme reaction (racemase + PAM, DKR conditions); assay type: biochemical; details: 0.4 mM racemic α-arylalanine, 200 μg/mL racemase, 100 μg/mL PAM, 20 h
Method: Coupled Enzyme Reaction. The coupled enzyme reaction mixture incubated at 31° C. contained partially purified amino acid racemase (200 μg) and PAM (100 μg) in 1 mL of 50 mM phosphate buffer (pH 8.0) containing 5% (v/v) glycerol. Each of the aryl α-amino acids (0.4 mM) were individually added to a separate assay tube containing the coupled enzyme mixture. After 20 h, the reactions were terminated by basification to pH 10-12 (with 0.5 N NaOH solution) and the amino acids were derivatized for quantification by chiral GC/EI-MS analysis as described previously.

[2] = molecular target: T1, phenylalanine aminomutase (PAM) (Taxus canadensis, UniProt Q6GZ04); test: Equilibration of α- and β-arylalanines by PAM; assay type: biochemical; design: His6 (N); made in house; host or cells: E. coli BL21(DE3); details: 100 μg PAM, 31° C.; for β-product to α-substrate ratio: after 20 h, 0.4 mM substrate
T1 sequence (Q6GZ04 1-698): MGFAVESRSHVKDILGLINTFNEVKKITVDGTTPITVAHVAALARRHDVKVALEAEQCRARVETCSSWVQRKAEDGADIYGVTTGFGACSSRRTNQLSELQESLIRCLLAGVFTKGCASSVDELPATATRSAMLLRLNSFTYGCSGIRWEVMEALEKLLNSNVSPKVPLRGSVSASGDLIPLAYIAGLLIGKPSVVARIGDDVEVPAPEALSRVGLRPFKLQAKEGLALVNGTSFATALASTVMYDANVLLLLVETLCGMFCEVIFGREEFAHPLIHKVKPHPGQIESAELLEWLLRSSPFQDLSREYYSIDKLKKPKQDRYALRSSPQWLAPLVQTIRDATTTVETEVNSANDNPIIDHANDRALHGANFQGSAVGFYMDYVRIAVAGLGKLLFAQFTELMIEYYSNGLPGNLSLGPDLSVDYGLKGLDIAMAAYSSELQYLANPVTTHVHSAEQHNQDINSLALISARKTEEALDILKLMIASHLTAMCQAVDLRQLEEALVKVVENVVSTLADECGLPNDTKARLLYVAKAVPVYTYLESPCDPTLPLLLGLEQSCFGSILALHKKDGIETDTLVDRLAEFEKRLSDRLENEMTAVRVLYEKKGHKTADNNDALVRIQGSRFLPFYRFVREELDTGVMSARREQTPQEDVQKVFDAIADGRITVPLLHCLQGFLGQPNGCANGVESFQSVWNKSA
Method: Assessing the Equilibration Rate of α- and β-Arylalanines by PAM. […] An aliquot was withdrawn from each reaction at five time points (0, 3, 6, 9 and 20 h). The ratio of (R)-β-arylalanine to (S)-α-arylalanine in each aliquot was calculated by GC/EI-MS fragmentation analysis and the abundances of the base peak fragment ions of the amino acid derivatives were compared as described earlier. The relative amount of each α-arylalanine and β-arylalanine at equilibrium was determined by linear regression analysis of the area of the base peak ion of the derivatized α- and β-arylalanines generated in the EI-MS. The peak area was converted to concentration of product (or substrate) by solving the corresponding linear equation, derived by plotting the area of the base peak ion (produced by the corresponding authentic standard in the mass spectrometer) against concentration ranging from 0 to 1.5 mM.

[3] = tested on: previously reported racemase; details: naturally occurring aromatic amino acids; cited from earlier work
[4] = molecular target: T1, phenylalanine aminomutase (PAM); design: His6 (N); made in house; host or cells: E. coli BL21(DE3); details: enantiopure (S)-α-phenylalanine, 10 μg/mL enzyme, 10 μM substrate, same temperature; cited from earlier work
[5] = molecular target: T1, phenylalanine aminomutase (PAM); test: Effect of (R)-α-phenylalanine on PAM activity (kinetic constants)
Method: Evaluation of the Effect of (R)-α-Phenylalanine on PAM Activity. Phenylalanine aminomutase (100 μg/mL) was added to 50 mM phosphate buffer (pH 8.0) containing 5% (v/v) glycerol at 31° C. containing either (S)-α-phenylalanine or (R)-β-phenylalanine at a range of concentrations (0.05, 0.10, 0.20, 0.40, 0.75, 1.5, and 3 mM). The reactions were incubated at 31° C. for 90 min under steady state conditions. Identical series of assays were run in parallel for the (S)-α- or (R)-β-phenylalanine as substrates, except 0.2 mM and 0.75 mM of (R)-α-phenylalanine were added separately to each series. Double reciprocal plots of velocity (vo) and concentration were constructed for the forward and reverse PAM reaction data sets. The equation of the best-fit line (R^2=0.98) was determined (Microsoft Excel 2003, Microsoft Corporation, Redmond, Wash.) to calculate the apparent KM and Ki for the appropriate reaction.^17

[6] = molecular target: T2, amino acid racemase from Pseudomonas putida (KT2440) (Pseudomonas putida, UniProt Q88GJ9); test: Racemization of α-arylalanines by amino acid racemase; assay type: biochemical
T2 construct: His6 (N); made in house; host or cells: E. coli BL21(DE3)
T2 sequence (Q88GJ9 25-409): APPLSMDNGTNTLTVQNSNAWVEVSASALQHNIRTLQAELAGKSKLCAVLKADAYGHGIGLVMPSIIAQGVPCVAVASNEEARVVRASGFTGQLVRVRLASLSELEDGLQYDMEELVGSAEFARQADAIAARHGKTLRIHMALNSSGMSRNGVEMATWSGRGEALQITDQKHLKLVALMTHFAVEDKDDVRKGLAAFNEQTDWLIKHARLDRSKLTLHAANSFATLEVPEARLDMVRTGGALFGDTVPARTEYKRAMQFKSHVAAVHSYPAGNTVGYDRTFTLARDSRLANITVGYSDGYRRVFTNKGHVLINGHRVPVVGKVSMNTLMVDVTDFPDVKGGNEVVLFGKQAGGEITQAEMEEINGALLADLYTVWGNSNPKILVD
Method: Assessing the Racemization Rate of α-Arylalanines by the Amino Acid Racemase. The partially purified (>90%) amino acid racemase (200 μg/mL) was added to 2.5 mL of 50 mM phosphate buffer (pH 8.0) containing 5% (v/v) glycerol and one different (S)-α-arylalanine (1.5 mM) in separate assays; the mixtures were incubated at 31° C. An aliquot was withdrawn from each reaction at five time points (0.5, 10, 30, 60, and 360 min). A similar time course experiment was conducted with (R)-α-phenylalanine.
Cofactor Dependency of the Amino Acid Racemase. To assess whether sufficient PLP, made by the E. coli BL21(DE3) expression host, remained bound to the functional PLP-dependent racemase for the duration of the assay, partially purified enzyme (400 μg) was added to each of two 2-mL assays that contained (S)-α-phenylalanine (1.5 mM). To one assay, exogenous PLP (50 μM) was added, and to the other, no cofactor was added. After 6 h, the contents of the reaction vial without PLP added were divided into two fractions […]; to one fraction was added PLP (50 μM), and the other fraction remained unchanged. Additional (S)-α-phenylalanine was added to a final concentration of 1.5 mM in all three assays, and incubated for 14 h.
Evaluation of the Effect of (R)-β-Phenylalanine on Racemase Activity. The partially purified amino acid racemase (400 μg) in 50 mM phosphate (2 mL, pH 8.0) containing 5% (v/v) glycerol buffer and (S)-α-phenylalanine (0.75 mM) was incubated in separate assays with or without (R)-β-phenylalanine (0.75 mM) added. Aliquots (0.5 mL) of each reaction mixture were withdrawn from each assay at three time points (30, 60 and 360 min). The amino acids in each fraction were derivatized and analyzed by chiral GC/EI-MS as described previously. The mol % of (S)-α-, (R)-α-arylalanine, and (R)-β-arylalanine in each sample were assessed by comparing the abundance of the diagnostic base peak fragment ion (m/z) derived by GC/EI-MS fragmentation for each of the corresponding analytes.

For Cc1ccc(CC(N)C(=O)O)cc1 (racemic) [4′-methyl-α-arylalanine, (R,S)-2-amino-3-(4′-methylphenyl)propionic acid], the “increase in conversion to (R)-β-arylalanine under DKR conditions compared to PAM alone” value (shortened to “increase in conversion”) [1] was 12%.
For N[C@@H](Cc1ccccc1)C(=O)O (racemic) [phenylalanine], the “increase in conversion” value [1] is given as 19%, the Keq ([2]; racemic substrate 0.4 mM, 20 h) is given as 1.8 and the Vrel [3] is given as 0.18.
For NC(Cc1cccc(F)c1)C(=O)O (racemic) [3′-fluoro-α-arylalanine, 2-amino-3-(3′-fluorophenyl)propionic acid], the “increase in conversion” value [1] was 14%.
With NC(Cc1cccs1)C(=O)O (racemic) [2′-thienyl-α-arylalanine, (R,S)-3-(2′-thienyl)alanine] the “increase in conversion” value [1] was 12%.
For (S)-α-phenylalanine, the “Keq (previous study)” value [4] is given as 1.1, the Vmax ([5]; forward reaction, with (R)-α-phenylalanine, no evident change relative to no inhibitor) is given as 0.1 µmol/min/mg and the Km ([5]; read-out: KM of PAM, in the absence of (R)-α-phenylalanine) is given as 700 µM. It also gave a Km ([5]; read-out: apparent Michaelis constant (KM apparent), forward reaction, in the presence of (R)-α-phenylalanine) of 1100 µM.
In the case of N[C@@H](Cc1c[nH]cn1)C(=O)O [histidine], the Vrel [3] is given as 1.
For N[C@@H](Cc1ccco1)C(=O)O [(S)-2-furanyl-α-alanine, (S)-2-amino-3-(2′-furanyl)propionic acid], the “β-product to α-substrate ratio” value [2] was 0.41.
For Cc1ncc(COP(=O)(O)O)c(C=O)c1O [PLP, pyridoxal-5′-phosphate, reference compound], the “change in racemase reaction rate with or without supplementation” value ([6]; 1.5 mM α-arylalanines, exogenous PLP 50 μM) was “No change in the reaction rate”.
In the case of N[C@@H](Cc1cccs1)C(=O)O [(S)-2-thienyl-α-alanine, (S)-3-(2′-thienyl)alanine], the “β-product to α-substrate ratio” value [2] is reported as 0.71.
With NC(Cc1ccc(F)cc1)C(=O)O (racemic) [4′-fluoro-α-arylalanine, 2-amino-3-(4′-fluorophenyl)propionic acid] the “increase in conversion” value [1] was 16%.
With N[C@H](CC(=O)O)c1ccccc1 [(R)-β-phenylalanine, (R)-3-amino-3-phenylpropionic acid] the “substrate of the racemase” value [6] was “nor was (R)-β-amino acid a substrate of the racemase” and the “effect on racemase reaction rate / activity” value ([6]; β-arylalanine added to racemization of (S)-α-arylalanine) was “not affect the reaction rate”.
In the case of N[C@@H](Cc1c[nH]c2ccccc12)C(=O)O [tryptophan], the Vrel [3] is given as 0.004.
With N[C@H](Cc1ccccc1)C(=O)O [(R)-α-Phenylalanine, (R)-α-phenylalanine] the “inhibition of the PAM reaction (forward)” value ([5]; 0.2 mM and 0.75 mM (R)-α-phenylalanine) was “did not significantly inhibit” and the “inhibition of the reverse PAM reaction” value ([5]; (R)-β-phenylalanine as substrate) was “not inhibited”.
